Test results as given in a compilation of properties of binary mixtures (doi:10.1039/c2cc30374d).

Assay: xn = mol fraction of the nth substance listed
Details: 101 kPa

[N-]=C=S.[NH4+] + CC(=O)[O-].CC[n+]1ccn(C)c1
Details | electrical conductivity [S/m] | viscosity [mPa·s]
298.15 K, x1 = 0.02 | 0.294 | 136.6
298.15 K, x1 = 0.1002 | 0.284 | 160.2
298.15 K, x1 = 0.1998 | 0.296 | 190.7
298.15 K, x1 = 0.2514 | 0.314 | 198.6
298.15 K, x1 = 0.3413 | 0.358 | 196.4
303.15 K, x1 = 0.02 | 0.382 | 100.9
303.15 K, x1 = 0.2514 | 0.411 | 144.4
303.15 K, x1 = 0.3199 | 0.458 | 142.8
303.15 K, x1 = 0.3413 | 0.463 | 143.6
308.15 K, x1 = 0.02 | 0.483 | 76.4
308.15 K, x1 = 0.1002 | 0.473 | 88.5
308.15 K, x1 = 0.3001 | 0.569 | 105.9
308.15 K, x1 = 0.3199 | 0.58 | 106.6
313.15 K, x1 = 0.02 | 0.601 | 59.3
313.15 K, x1 = 0.1002 | 0.593 | 68.1
313.15 K, x1 = 0.1998 | 0.617 | 79.3
313.15 K, x1 = 0.2514 | 0.66 | 81.5
313.15 K, x1 = 0.3001 | 0.782 | 80.5
313.15 K, x1 = 0.3199 | 0.797 | 81.1
318.15 K, x1 = 0.02 | 0.82 | 46.9
318.15 K, x1 = 0.1002 | 0.811 | 53.3
318.15 K, x1 = 0.2514 | 0.901 | 62.9
318.15 K, x1 = 0.3001 | 0.968 | 62.3
318.15 K, x1 = 0.3199 | 0.986 | 62.8
318.15 K, x1 = 0.3413 | 0.997 | 63.3
323.15 K, x1 = 0.02 | 0.986 | 37.8
323.15 K, x1 = 0.1002 | 0.987 | 42.5
323.15 K, x1 = 0.1998 | 1.04 | 48.4
323.15 K, x1 = 0.2514 | 1.1 | 49.3
323.15 K, x1 = 0.3001 | 1.18 | 48.9
323.15 K, x1 = 0.3199 | 1.2 | 49.3
323.15 K, x1 = 0.3413 | 1.21 | 49.8
328.15 K, x1 = 0.02 | – | 30.91
328.15 K, x1 = 0.1998 | – | 38.62
328.15 K, x1 = 0.2514 | – | 39.15
328.15 K, x1 = 0.3001 | – | 38.91
328.15 K, x1 = 0.3413 | – | 39.67
333.15 K, x1 = 0.2514 | – | 31.49
333.15 K, x1 = 0.3199 | – | 31.67
333.15 K, x1 = 0.3413 | – | 32

[N-]=C=S.[NH4+] + CCOS(=O)(=O)[O-].CC[n+]1ccn(C)c1
Details | electrical conductivity [S/m] | viscosity [mPa·s]
298.15 K, x1 = 0.1553 | 0.319 | 150
298.15 K, x1 = 0.4042 | 0.279 | 231.1
298.15 K, x1 = 0.5205 | 0.281 | 224
298.15 K, x1 = 0.565 | 0.295 | 215.9
298.15 K, x1 = 0.5997 | 0.301 | 208.9
303.15 K, x1 = 0.0235 | 0.461 | 81.3
303.15 K, x1 = 0.1553 | 0.398 | 118
303.15 K, x1 = 0.3025 | 0.358 | 163.3
303.15 K, x1 = 0.4042 | 0.353 | 178.7
303.15 K, x1 = 0.5205 | 0.358 | 173.4
303.15 K, x1 = 0.5997 | 0.385 | 168.2
308.15 K, x1 = 0.0235 | 0.56 | 65.16
308.15 K, x1 = 0.1553 | 0.486 | 94.3
308.15 K, x1 = 0.5205 | 0.446 | 135.3
308.15 K, x1 = 0.565 | 0.468 | 133.9
308.15 K, x1 = 0.5997 | 0.481 | 133.7
313.15 K, x1 = 0.0235 | 0.67 | 53.09
313.15 K, x1 = 0.1553 | 0.584 | 76.57
313.15 K, x1 = 0.3025 | 0.531 | 104.6
313.15 K, x1 = 0.4042 | 0.526 | 112.9
313.15 K, x1 = 0.5205 | 0.546 | 107.5
313.15 K, x1 = 0.565 | 0.573 | 106
318.15 K, x1 = 0.0235 | 0.846 | 43.86
318.15 K, x1 = 0.1553 | 0.739 | 63.03
318.15 K, x1 = 0.3025 | 0.633 | 85.6
318.15 K, x1 = 0.4042 | 0.633 | 91.8
318.15 K, x1 = 0.5997 | 0.751 | 84.6
323.15 K, x1 = 0.0235 | 0.99 | 36.68
323.15 K, x1 = 0.1553 | 0.867 | 52.56
323.15 K, x1 = 0.3025 | 0.795 | 70.9
323.15 K, x1 = 0.4042 | 0.795 | 75.6
323.15 K, x1 = 0.5205 | 0.831 | 71.22
323.15 K, x1 = 0.5997 | 0.896 | 68.92
328.15 K, x1 = 0.0235 | – | 31.04
328.15 K, x1 = 0.1553 | – | 44.26
328.15 K, x1 = 0.3025 | – | 59.41
328.15 K, x1 = 0.4042 | – | 63.04
328.15 K, x1 = 0.5205 | – | 59.16
328.15 K, x1 = 0.565 | – | 57.79
328.15 K, x1 = 0.5997 | – | 56.96
333.15 K, x1 = 0.1553 | – | 37.68
333.15 K, x1 = 0.5205 | – | 49.72
333.15 K, x1 = 0.565 | – | 48.47

CC(=O)[O-].CC[n+]1ccn(C)c1 + [N-]=C=S.[NH4+]
x2 = 0
Details | electrical conductivity [S/m] | viscosity [mPa·s]
298.15 K | 0.295 | 128.4
303.15 K | 0.383 | 95.1
308.15 K | 0.483 | 72.4
318.15 K | 0.819 | 44.8
323.15 K | 0.984 | 36.27
328.15 K | – | 29.81
333.15 K | – | 24.86

CCOS(=O)(=O)[O-].CC[n+]1ccn(C)c1 + [N-]=C=S.[NH4+]
x2 = 0
Details | electrical conductivity [S/m] | viscosity [mPa·s]
298.15 K | 0.38 | 95.9
303.15 K | 0.468 | 75.63
308.15 K | 0.566 | 60.66
313.15 K | 0.675 | 49.45
318.15 K | 0.856 | 40.88
323.15 K | 1 | 34.24
328.15 K | – | 28.99
333.15 K | – | 24.81
